These results are taken from ChEMBL document CHEMBL1153142, “Scaffold hopping from pyridones to imidazo[1,2-a]pyridines. New positive allosteric modulators of metabotropic glutamate 2 receptor” (Bioorg Med Chem Lett, 2010).

One test concerns the target T1, Metabotropic glutamate receptor 2 (Homo sapiens, UniProt Q14416). Description: Allosteric modulation of human mGluR2 expressed in CHO cells by [35S]GTPgammaS binding assay. The class given is functional, cell-based. On the technique in general: Binding of GTPγS marks nucleotide exchange on a G protein.
Target sequence in this assay (Q14416 whole entry): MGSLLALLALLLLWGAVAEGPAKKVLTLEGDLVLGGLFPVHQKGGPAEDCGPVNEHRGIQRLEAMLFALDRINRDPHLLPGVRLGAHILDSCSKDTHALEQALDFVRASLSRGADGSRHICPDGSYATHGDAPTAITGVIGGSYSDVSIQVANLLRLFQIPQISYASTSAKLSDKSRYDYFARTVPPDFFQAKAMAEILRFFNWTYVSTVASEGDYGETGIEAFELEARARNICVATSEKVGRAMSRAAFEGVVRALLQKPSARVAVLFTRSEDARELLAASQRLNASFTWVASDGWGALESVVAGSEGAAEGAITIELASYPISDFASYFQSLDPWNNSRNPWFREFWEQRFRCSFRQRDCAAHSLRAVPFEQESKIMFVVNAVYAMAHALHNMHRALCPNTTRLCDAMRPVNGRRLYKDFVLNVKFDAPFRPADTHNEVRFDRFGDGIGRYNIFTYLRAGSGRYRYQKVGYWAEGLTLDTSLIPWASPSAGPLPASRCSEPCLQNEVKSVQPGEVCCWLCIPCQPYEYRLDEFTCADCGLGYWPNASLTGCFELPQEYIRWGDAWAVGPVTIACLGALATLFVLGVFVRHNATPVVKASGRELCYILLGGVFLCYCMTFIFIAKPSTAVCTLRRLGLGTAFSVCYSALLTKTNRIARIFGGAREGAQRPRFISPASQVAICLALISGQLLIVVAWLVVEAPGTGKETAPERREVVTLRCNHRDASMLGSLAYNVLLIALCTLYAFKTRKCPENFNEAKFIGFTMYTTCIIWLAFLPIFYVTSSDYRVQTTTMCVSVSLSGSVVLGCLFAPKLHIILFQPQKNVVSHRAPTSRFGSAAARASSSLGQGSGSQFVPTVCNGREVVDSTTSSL
On to `CCc1cnc2c(C#N)c(N3CCN(c4ncccn4)CC3)ccn12`, for which the EC50 is greater than 3.16 µM. On the same count and under the same terms, the result for `N#Cc1c(N2CCN(c3ccccc3)CC2)ccn2c(-c3ccccc3)cnc12` reads greater than 3.16 µM; that for `CCCc1cnc2c(C#N)c(N3CCN(c4ncccn4)CC3)ccn12`, greater than 3.16 µM.

The target of a further test is T1, Metabotropic glutamate receptor 2. Kind of test: Allosteric modulation of human mGluR2 expressed in CHO cells by [35S]GTPgammaS binding assay relative to glutamate. The test is classed as functional, cell-based.
Target sequence in this assay (Q14416 19-872 limits assumed): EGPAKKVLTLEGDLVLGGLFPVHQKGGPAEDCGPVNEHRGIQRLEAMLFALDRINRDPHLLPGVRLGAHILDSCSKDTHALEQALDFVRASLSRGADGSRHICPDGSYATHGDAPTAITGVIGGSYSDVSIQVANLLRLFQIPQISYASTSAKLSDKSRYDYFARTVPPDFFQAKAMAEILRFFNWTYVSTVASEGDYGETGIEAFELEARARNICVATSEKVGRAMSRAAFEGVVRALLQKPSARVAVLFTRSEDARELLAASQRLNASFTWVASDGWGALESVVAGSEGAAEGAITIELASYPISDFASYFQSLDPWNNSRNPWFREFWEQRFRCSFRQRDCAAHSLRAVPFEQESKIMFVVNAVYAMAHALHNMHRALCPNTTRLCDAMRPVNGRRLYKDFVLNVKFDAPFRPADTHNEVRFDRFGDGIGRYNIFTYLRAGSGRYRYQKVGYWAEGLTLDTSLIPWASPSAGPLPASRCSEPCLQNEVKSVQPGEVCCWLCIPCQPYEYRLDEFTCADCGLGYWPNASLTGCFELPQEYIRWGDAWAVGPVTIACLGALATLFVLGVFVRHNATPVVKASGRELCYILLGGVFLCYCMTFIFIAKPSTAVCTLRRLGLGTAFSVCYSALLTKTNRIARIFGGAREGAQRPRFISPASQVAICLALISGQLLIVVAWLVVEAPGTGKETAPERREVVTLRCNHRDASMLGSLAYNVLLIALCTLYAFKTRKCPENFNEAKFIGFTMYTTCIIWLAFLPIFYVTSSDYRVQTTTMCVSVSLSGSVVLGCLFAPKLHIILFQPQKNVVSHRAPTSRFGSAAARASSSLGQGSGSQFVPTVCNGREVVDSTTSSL
`CCCc1cnc2c(C#N)c(N3CCN(c4nc(C)cc(C)n4)CC3)ccn12` had an Emax of 179%. In the case of `CCc1cnc2c(C#N)c(N3CCN(c4ncccn4)CC3)ccn12`, the Emax was determined as 214%. The same measure, in the same setting: the result for `N#Cc1c(-c2ccc(Oc3ccccc3)cc2)ccn2c(CC(F)(F)F)cnc12` reads 200%; that for `N#Cc1c(N2CCN(c3ccccc3)CC2)ccn2c(-c3ccccc3)cnc12`, 73%. Still for that read-out and setting: the result for `N#Cc1c(-c2ccc(N3CCCCC3)cc2)ccn2c(CC(F)(F)F)cnc12` reads 123%; that for `CCc1cnc2c(C#N)c(N3CCN(c4nc(C)cc(C)n4)CC3)ccn12`, 142%. `N#Cc1c(-c2ccc(OCc3ccccc3)cc2)ccn2c(CC(F)(F)F)cnc12`: the Emax is 222%. For the molecule `Cc1c(OCc2cccc(-c3ccc(C(=O)O)cc3)c2)cc2c(c1C)C(=O)C(C1CCCC1)C2` (centres undefined), the Emax came to 213%.

As to `CCCc1cnc2c(C#N)c(N3CCN(c4ncccn4)CC3)ccn12`, the Emax came out at 248%. Still for that read-out and setting: the result for `N#Cc1c(N2CCN(c3ncccn3)CC2)ccn2c(CCC3CC3)cnc12` reads 229%; that for `CC(C)(C)c1ccc(-c2ccn3c(CC(F)(F)F)cnc3c2C#N)cc1`, 272%; that for `CCCCn1ccc(N2CCN(c3nc(C)cc(C)n3)CC2)c(C#N)c1=O`, 235%.

Turning to `CCCc1cnc2c(C#N)c(N3CCN(c4ccccc4)CC3)ccn12`, the Emax came out at 241%.

With `N#Cc1c(N2CCN(c3ncccn3)CC2)ccn2c(CC(F)(F)F)cnc12`, the Emax turned out to be 231%. As to `N#Cc1c(-c2ccc(NC3CC3)c(Cl)c2)ccn2c(CC(F)(F)F)cnc12`, the Emax came to 187%. `Cc1cc(C)nc(N2CCN(c3ccn4c(CC(F)(F)F)cnc4c3C#N)CC2)n1` had an Emax of 128%.

Usually EC50 stands for the concentration giving half of the maximal effect. The term Emax denotes the greatest response seen or fitted, relative to the assay's reference.
